Assay results published in US20220401329A1, “ARTIFICIAL MELANIN NANOPARTICLES AND PRECURSOR MOLECULES AS HAIR DYES” (Northwestern University, priority 2019, published 2022).
Marks after values point to notes of the source that are not given here.

Assays:
[1] = system: Agaricus bisporus tyrosinase (EC 1.14.18.1); experiment: Monomer consumption in tyrosinase-mediated oxidation, by RP-HPLC; type: biochemical; conditions: 84 nM tyrosinase; for monomer consumption (%) after 2 h reaction: 0.5 mg/mL monomer in water
Method: The use of chemoenzymatic oxidative polymerization to produce multifunctional hair coatings has two main advantages. First, it is performed at neutral pH, avoiding the need for basic additives such as NH4OH. Second, it allows the use of substrates other than DA, such as phenolamines and amino acids. Mushroom tyrosinase has recently been used to promote polydopamine-based film deposition^40 and nanoparticles formation^41 starting from dopamine as well as natural phenolamines. […] As previously reported,^40 a 6 h reaction time was necessary to obtain effective darkening of the reaction solutions, performed either in water or Dulbecco's phosphate-buffered saline (DPBS) buffer (FIGS. 23A and 29). Across all tested monomers (L-Tyr, TA, DA), color darkening was associated with an initial increase, then decrease in UV-Vis absorption at 310 nm and 475 nm (FIGS. 23B and 30A-30D). A decrease in these signals, deriving from quinone and cyclic amine species respectively,^40 after the 6 h reaction is indicative of successful polymerization and deposition.^40 We next performed these reactions at 35° C. and at neutral pH, optimal reaction parameters for mushroom tyrosinase.^42 This led to a faster process with solutions turning brown/black several minutes after reaction initiation (FIG. 23A). […] This was confirmed by the rapid disappearance of the peak at 310 nm and 480 nm, as monitored by UV-Vis (FIGS. 23B and 30A-30D). […] (FIGS. 23C and 31A-31B and Table 2). At five-fold higher concentration of 420 nM (50 U/mL) we observed almost complete monomer consumption (FIG. 23D). Monitoring Monomer Consumption via RP-HPLC studies. Monomer consumption after a 2 h reaction was determined by RP-HPLC. Reactions were performed either at rt or at 35° C. and using either 84 nM or […] (five fold) tyrosinase.

[2] = Solubility of monomers in water; type: physicochemical

Row | substrate for mushroom tyrosinase ([1]; 0.5 mg/mL, 2 hours at 35° C. (FIG. 33A)) | solubility [2] | monomer consumption (%) after 2 h reaction ([1]; 35° C.) | monomer consumption (%) after 2 h reaction ([1]; rt) | SMILES
1 | good substrate | ≥ 26 mM |  |  | COC(=O)[C@@H](N)Cc1ccc(O)cc1 [L-Tyr-OMe, L-tyrosine methyl ester]
2 |  |  | 86% | 55%* | N[C@@H](Cc1ccc(O)cc1)C(=O)O [L-Tyr, L-tyrosine]
3 |  |  | 91% | 65% | NCCc1ccc(O)c(O)c1 [DA, dopamine]
4 |  |  | 86% | 76% | NCCc1ccc(O)cc1 [TA, tyramine]
